Assay results as given in ChEMBL document CHEMBL5725324, “Amide compounds for treatment of complement mediated disorders” (2017).
pIC50: −log10 of the molar value.

Target: Complement factor D (Homo sapiens, UniProt P00746)
Assay: Human Factor D Assay: Human factor D (purified from human serum, Complement Technology, Inc.) at 80 nM final concentration is incubated with test compound at various concentrations for 5 minutes at room temperature in 50 mM Tris, 1M NaCl, pH 7.5. A synthetic substrate Z-L-Lys-SBzl and DTNB (Ellman's reagent) are added to final concentrations of 100 μM each. The increase in color is recorded at OD405 nm in a microplate in kinetic mode over 30 minutes with 30 second time points in a […]. IC50 values are calculated by non-linear regression from the percentage of inhibition of complement factor D activity as a function of test compound concentration.

Chain of Complement factor D (P00746 whole entry): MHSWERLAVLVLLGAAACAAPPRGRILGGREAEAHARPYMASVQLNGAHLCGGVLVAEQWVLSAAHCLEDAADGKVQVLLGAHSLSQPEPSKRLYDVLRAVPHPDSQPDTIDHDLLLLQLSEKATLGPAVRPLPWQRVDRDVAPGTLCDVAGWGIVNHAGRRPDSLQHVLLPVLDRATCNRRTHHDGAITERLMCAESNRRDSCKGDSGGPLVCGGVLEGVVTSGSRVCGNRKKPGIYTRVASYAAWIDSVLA

## CC(=O)c1cn(CC(=O)N2[C@@H]3C[C@@H]3C[C@H]2C(=O)NCc2cccc(Cl)c2F)c2ccc(NC(=O)N3CCCC3)cc12
  pIC50: > 6.00
